Square brackets hold non-standard residues; d marks the D form. Peptide text beside a SMILES is read from it. Cha = N[C@@H](CC1CCCCC1)C(=O)O
What was measured:
[1] = target: T1, Atrial natriuretic peptide receptor 3 (Homo sapiens, UniProt P17342); assay: Displacement of [125I]-human ANP from His-tagged and Fc fragment containing human NPR-3 extracellular domain expressed in FreeStyle 293 cells incubated for 2 hrs by top count method; assay type: cell-based
T1 sequence (P17342 whole entry): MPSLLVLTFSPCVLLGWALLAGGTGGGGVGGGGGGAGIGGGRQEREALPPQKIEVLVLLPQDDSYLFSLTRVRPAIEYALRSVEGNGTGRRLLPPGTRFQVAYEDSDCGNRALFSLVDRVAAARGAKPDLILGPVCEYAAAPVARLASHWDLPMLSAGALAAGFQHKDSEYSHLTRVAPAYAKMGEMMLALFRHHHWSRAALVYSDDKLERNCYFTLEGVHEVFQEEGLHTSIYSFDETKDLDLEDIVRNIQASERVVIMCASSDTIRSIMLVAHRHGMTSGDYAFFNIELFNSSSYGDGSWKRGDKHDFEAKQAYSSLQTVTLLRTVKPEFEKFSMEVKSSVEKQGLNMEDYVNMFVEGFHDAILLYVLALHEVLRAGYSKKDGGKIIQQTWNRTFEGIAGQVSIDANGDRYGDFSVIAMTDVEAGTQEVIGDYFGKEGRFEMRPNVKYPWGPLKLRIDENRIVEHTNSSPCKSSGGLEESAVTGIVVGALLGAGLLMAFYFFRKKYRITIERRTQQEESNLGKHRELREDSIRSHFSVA

[2] = target: T2, Atrial natriuretic peptide receptor 1 (Homo sapiens, UniProt P16066); assay: Displacement of [125I]-human ANP from human NPR-1 incubated for 2 hrs by top count method
T2 sequence (P16066 whole entry): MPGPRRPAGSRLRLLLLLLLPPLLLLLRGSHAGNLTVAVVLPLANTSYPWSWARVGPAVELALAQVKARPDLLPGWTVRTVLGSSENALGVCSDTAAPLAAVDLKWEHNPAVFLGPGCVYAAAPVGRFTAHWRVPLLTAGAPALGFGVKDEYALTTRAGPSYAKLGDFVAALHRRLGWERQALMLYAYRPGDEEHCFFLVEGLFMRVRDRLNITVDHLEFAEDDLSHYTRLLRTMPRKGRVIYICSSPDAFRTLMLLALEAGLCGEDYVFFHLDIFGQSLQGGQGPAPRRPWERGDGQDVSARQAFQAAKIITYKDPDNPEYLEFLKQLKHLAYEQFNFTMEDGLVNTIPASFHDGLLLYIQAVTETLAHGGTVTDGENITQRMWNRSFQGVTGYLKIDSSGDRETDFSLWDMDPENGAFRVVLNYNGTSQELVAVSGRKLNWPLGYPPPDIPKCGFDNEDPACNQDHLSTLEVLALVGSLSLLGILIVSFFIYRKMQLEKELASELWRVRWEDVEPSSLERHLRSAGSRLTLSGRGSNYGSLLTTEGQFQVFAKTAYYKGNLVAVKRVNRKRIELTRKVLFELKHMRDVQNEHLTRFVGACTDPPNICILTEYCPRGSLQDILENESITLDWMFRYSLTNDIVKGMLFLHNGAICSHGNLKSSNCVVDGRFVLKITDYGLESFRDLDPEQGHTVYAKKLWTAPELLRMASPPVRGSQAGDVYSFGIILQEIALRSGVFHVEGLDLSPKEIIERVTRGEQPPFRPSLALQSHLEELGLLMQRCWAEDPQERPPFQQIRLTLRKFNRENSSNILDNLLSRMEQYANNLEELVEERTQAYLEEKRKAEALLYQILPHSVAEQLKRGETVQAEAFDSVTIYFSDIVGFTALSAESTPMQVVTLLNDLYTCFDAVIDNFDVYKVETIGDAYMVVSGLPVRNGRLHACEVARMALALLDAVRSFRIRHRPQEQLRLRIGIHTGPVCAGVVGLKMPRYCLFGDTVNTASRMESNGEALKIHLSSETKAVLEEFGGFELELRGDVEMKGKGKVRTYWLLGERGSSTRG

[3] = Stability in 10% C57BL/6J mouse serum/phosphate-buffered saline assessed as residual parent compound remaining at 1 mM after 30 mins at 37 degC by HPLC method; assay type: ADME, cell-free; settings: 10% mouse serum in phosphate-buffered saline, read-out: Stability
[4] = Stability in 10% C57BL/6J mouse serum/phosphate-buffered saline assessed as residual parent compound remaining at 1 mM after 60 mins at 37 degC by HPLC method; assay type: ADME, cell-free; settings: 10% mouse serum in phosphate-buffered saline, read-out: Stability

Row | SMILES | IC50 [1] [nM] | IC50 [2] [nM] | remaining at 0.5 h, 1000 µM [3] [%] | remaining at 1 h, 1000 µM [4] [%]
1 | CC[C@H](C)[C@H](NC(=O)[C@H](CCCNC(=N)N)NC(=O)[C@H](CC(=O)O)NC(=O)[C@@H](NC(=O)[C@H](CCCNC(=N)N)NC(=O)CNC(=O)CNC(=O)[C@H](Cc1ccccc1)NC(=O)[C@H](CS)NC(=O)[C@H](CO)NC(=O)[C@H](CO)NC(=O)[C@@H](N)CCCNC(=N)N)[C@@H](C)CC)C(=O)NCC(=O)N[C@@H](C)C(=O)N[C@@H](CS)C(=O)O (H-RSSCFGGRIDRIGAC-OH) | 0.65 |  |  | 
2 | CC[C@H](C)[C@H](NC(=O)[C@H](CCCNC(=N)N)NC(=O)[C@H](CC(=O)O)NC(=O)[C@@H](NC(=O)[C@H](CCCNC(=N)N)NC(=O)CNC(=O)CNC(=O)[C@H](CC1CCCCC1)NC(=O)[C@@H](N)CO)[C@@H](C)CC)C(=O)NCC(N)=O (H-S[Cha]GGRIDRIG-NH2) | 15 | > 1000 |  | 
3 | CC[C@H](C)[C@H](NC(=O)[C@H](CCCNC(=N)N)NC(=O)[C@H](CC(=O)O)NC(=O)[C@@H](NC(=O)[C@H](CCCNC(=N)N)NC(=O)CNC(=O)CNC(=O)[C@H](CC1CCCCC1)NC(=O)[C@H]1CCCN1C(=O)[C@H](CO)NC(=O)[C@H](N)Cc1ccccc1)[C@@H](C)CC)C(=O)NCC(N)=O | 0.13 | > 1000 | 80 | 63
4 | CC[C@H](C)[C@H](NC(=O)[C@H](CCCNC(=N)N)NC(=O)[C@H](CC(=O)O)NC(=O)[C@@H](NC(=O)[C@H](CCCNC(=N)N)NC(=O)CNC(=O)CNC(=O)[C@H](CC1CCCCC1)NC(=O)CNC(=O)[C@H](CO)NC(=O)[C@H](CO)NC(=O)[C@@H](N)CCCNC(=N)N)[C@@H](C)CC)C(=O)NCC(N)=O (H-RSSG[Cha]GGRIDRIG-NH2) | 7.8 | > 1000 |  | 
5 | CC[C@H](C)[C@H](NC(=O)[C@H](CCCNC(=N)N)NC(=O)[C@H](CC(=O)O)NC(=O)[C@@H](NC(=O)[C@H](CCCNC(=N)N)NC(=O)CNC(=O)CNC(=O)[C@H](CC1CCCCC1)NC(=O)CNC(=O)[C@H](CO)NC(=O)[C@@H](N)Cc1ccccc1)[C@@H](C)CC)C(=O)NCC(N)=O | 1.2 | > 1000 | 1.4 | 0
6 | CC[C@H](C)[C@@H]1NC(=O)[C@H](CCCNC(=N)N)NC(=O)[C@H](CC(=O)O)NC(=O)[C@H](CCSC)NC(=O)[C@H](CCCNC(=N)N)NC(=O)CNC(=O)CNC(=O)[C@H](Cc2ccccc2)NC(=O)[C@@H](NC(=O)[C@H](CO)NC(=O)[C@H](CO)NC(=O)[C@H](CCCNC(=N)N)NC(=O)[C@H](CCCNC(=N)N)NC(=O)[C@H](CC(C)C)NC(=O)[C@@H](N)CO)CSSC[C@@H](C(=O)N[C@@H](CC(N)=O)C(=O)N[C@@H](CO)C(=O)N[C@@H](Cc2ccccc2)C(=O)N[C@@H](CCCNC(=N)N)C(=O)N[C@@H](Cc2ccc(O)cc2)C(=O)O)NCC(=O)NC(=O)[C@H](CC(C)C)NC(=O)CNC(=O)[C@H](CO)NC(=O)[C@H](CCC(N)=O)NC(=O)[C@H](C)NC(=O)CNC1=O | 0.058 | 0.094 |  | 
7 | CC[C@H](C)[C@H](NC(=O)[C@H](CCCNC(=N)N)NC(=O)[C@H](CC(=O)O)NC(=O)[C@@H](NC(=O)[C@H](CCCNC(=N)N)NC(=O)CNC(=O)CNC(=O)[C@H](CC1CCCCC1)NC(=O)CNC(=O)[C@H](CO)NC(=O)[C@@H](Cc1ccccc1)NC(C)=O)[C@@H](C)CC)C(=O)NCC(N)=O | 0.93 | > 1000 |  | 
8 | CC[C@H](C)[C@H](NC(=O)[C@H](CCCNC(=N)N)NC(=O)[C@H](CC(=O)O)NC(=O)[C@@H](NC(=O)[C@H](CCCNC(=N)N)NC(=O)CNC(=O)CNC(=O)[C@H](CC1CCCCC1)NC(=O)CNC(=O)[C@@H](N)CO)[C@@H](C)CC)C(=O)NCC(N)=O (H-SG[Cha]GGRIDRIG-NH2) | 22 | > 1000 |  | 
9 | CC[C@H](C)[C@H](NC(=O)[C@H](CCCNC(=N)N)NC(=O)[C@H](CC(=O)O)NC(=O)[C@@H](NC(=O)[C@H](CCCNC(=N)N)NC(=O)CNC(=O)CNC(=O)[C@@H](N)CC1CCCCC1)[C@@H](C)CC)C(=O)NCC(N)=O (H-[Cha]GGRIDRIG-NH2) | 11 | > 1000 |  | 
10 | CC[C@H](C)[C@H](NC(=O)[C@H](CCCNC(=N)N)NC(=O)[C@H](CC(=O)O)NC(=O)[C@@H](NC(=O)[C@@H]1CCCN1C(=O)CNC(=O)[C@@H](C)NC(=O)[C@H](CC1CCCCC1)NC(=O)[C@H]1CCCN1C(=O)[C@H](CO)NC(=O)[C@@H](Cc1ccccc1)NC(C)=O)[C@@H](C)CC)C(=O)NCC(N)=O | 0.19 | > 1000 |  | 
11 | CC[C@H](C)[C@H](NC(=O)[C@H](CCCNC(=N)N)NC(=O)[C@H](CC(=O)O)NC(=O)[C@@H](NC(=O)[C@H](CCCNC(=N)N)NC(=O)CNC(=O)CNC(=O)[C@H](CC1CCCCC1)NC(=O)CNC(=O)[C@H](CO)NC(=O)[C@H](Cc1ccccc1)NC(=O)[C@@H](N)CO)[C@@H](C)CC)C(=O)NCC(N)=O (H-SFSG[Cha]GGRIDRIG-NH2) | 0.52 | > 1000 |  | 
12 | CC[C@H](C)[C@H](NC(=O)[C@H](CCCNC(=N)N)NC(=O)[C@H](CC(=O)O)NC(=O)[C@@H](NC(=O)[C@H](CCCNC(=N)N)NC(=O)CNC(=O)CNC(=O)[C@H](CC1CCCCC1)NC(=O)[C@H](C)N)[C@@H](C)CC)C(=O)NCC(N)=O (H-A[Cha]GGRIDRIG-NH2) | 13 | > 1000 |  | 
13 | CC[C@H](C)[C@H](NC(=O)[C@H](CCCNC(=N)N)NC(=O)[C@H](CC(=O)O)NC(=O)[C@@H](NC(=O)[C@H](CCCNC(=N)N)NC(=O)CNC(=O)CNC(=O)[C@H](CC1CCCCC1)NC(=O)CN)[C@@H](C)CC)C(=O)NCC(N)=O (H-G[Cha]GGRIDRIG-NH2) | 13 | > 1000 |  | 
14 | CC[C@H](C)[C@H](NC(=O)[C@H](CCCNC(=N)N)NC(=O)[C@H](CC(=O)O)NC(=O)[C@@H](NC(=O)[C@@H]1CCCN1C(=O)CNC(=O)CNC(=O)[C@H](CC1CCCCC1)NC(=O)CNC(=O)[C@H](CO)NC(=O)[C@H](N)Cc1ccccc1)[C@@H](C)CC)C(=O)NCC(N)=O | 0.12 | > 1000 |  | 
15 | CC[C@H](C)[C@H](NC(=O)[C@H](CCCNC(=N)N)NC(=O)[C@H](CC(=O)O)NC(=O)[C@@H](NC(=O)[C@H](CCCNC(=N)N)NC(=O)CNC(=O)CNC(=O)[C@H](CC1CCCCC1)NC(=O)[C@H](CS)NC(C)=O)[C@@H](C)CC)C(=O)NCC(N)=O (Ac-C[Cha]GGRIDRIG-NH2) | 35 | > 1000 |  | 
16 | CC[C@H](C)[C@H](NC(=O)[C@H](CCCNC(=N)N)NC(=O)[C@H](CC(=O)O)NC(=O)[C@@H](NC(=O)[C@H](CCCNC(=N)N)NC(=O)CNC(=O)[C@@H](C)NC(=O)[C@H](CC1CCCCC1)NC(=O)CNC(=O)[C@H](CO)NC(=O)[C@H](N)Cc1ccccc1)[C@@H](C)CC)C(=O)NCC(N)=O | 0.36 | > 1000 |  | 
17 | CC[C@H](C)[C@H](NC(=O)[C@H](CCCNC(=N)N)NC(=O)[C@H](CC(=O)O)NC(=O)[C@@H](NC(=O)[C@H](CCCNC(=N)N)NC(=O)CNC(=O)CNC(=O)[C@H](CC1CCCCC1)NC(C)=O)[C@@H](C)CC)C(=O)NCC(N)=O (Ac-[Cha]GGRIDRIG-NH2) | 54 | > 1000 |  | 
18 | CC[C@H](C)[C@H](NC(=O)[C@H](CCCNC(=N)N)NC(=O)[C@H](CC(=O)O)NC(=O)[C@@H](NC(=O)[C@H](CCCNC(=N)N)NC(=O)CNC(=O)CNC(=O)[C@H](CC1CCCCC1)NC(=O)[C@@H](N)CS)[C@@H](C)CC)C(=O)NCC(N)=O (H-C[Cha]GGRIDRIG-NH2) | 1.5 | 120 |  | 

From ChEMBL document CHEMBL4033735, “A potent and selective natriuretic peptide receptor-3 blocker 11-mer peptide created by hybridization of musclin and atrial natriuretic peptide” (Bioorg Med Chem Lett, 2017)
